Test [1] addresses T1, Pseudomonas aeruginosa LpxC enzyme (Pseudomonas aeruginosa, UniProt P47205).
T1 construct: made in house; host or cells: E. coli
T1 sequence (P47205 1-303): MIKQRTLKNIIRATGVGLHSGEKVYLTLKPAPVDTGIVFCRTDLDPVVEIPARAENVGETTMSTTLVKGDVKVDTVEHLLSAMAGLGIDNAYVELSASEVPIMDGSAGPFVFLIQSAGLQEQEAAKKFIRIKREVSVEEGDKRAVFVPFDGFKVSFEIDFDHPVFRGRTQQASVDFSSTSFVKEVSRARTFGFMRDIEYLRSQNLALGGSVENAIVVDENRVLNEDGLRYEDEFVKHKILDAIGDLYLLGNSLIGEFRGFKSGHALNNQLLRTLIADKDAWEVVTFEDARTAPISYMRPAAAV
In words: IC50 assay, LpxC enzyme from P. aeruginosa (PA LpxC enzyme IC50). The class given is biochemical. The following applies: Table 2; LpxC enzyme 0.1 nM, 25° C., 1 hour; read-out: PA:IC50. The gist of the method:
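The LpxC reaction ran 1 hour and was stopped with HCl. Substrate-to-product conversion was measured by RapidFire mass spectrometry, and IC50 values were calculated from percent conversion relative to a no-enzyme control.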

In test [2] the test system is Acinetobacter baumannii/haemolyticus, multidrug-resistant clinical isolate (AB-3167). Description: MIC determination, AB-3167. The test is classed as cell-based. As to conditions: Table 2, lower of duplicate values. The gist of the method: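 Broth dilution MIC per CLSI M7-A8, 2-fold drug series, overnight incubation, lowest concentration visibly inhibiting growth against drug-free control. Run in duplicate, lower value reported; duplicates differing >2-fold repeated; QC strains and reference compounds required in range.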

Test [3] relates to Escherichia coli EC-1: VOGEL, mouse virulent. Description: MIC determination, EC-1. The test is classed as cell-based. As to conditions: Escherichia coli, read-out: EC-1 (MIC), Table 2, lower of duplicate values. Summed up: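 MIC against mouse-virulent E. coli EC-1 (VOGEL) was determined by CLSI M7-A8 broth dilution with 2-fold drug increments and overnight incubation. The MIC is the lowest concentration with no visible growth versus drug-free control. Tests were run in duplicate and the lower value reported if within 2-fold, with QC organisms and reference drugs in each run.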

In test [4] the test system is Pseudomonas aeruginosa UI-18: wild-type (PA-7). In words: MIC determination, PA-7. The test is classed as cell-based. The following applies: Table 2, lower of duplicate values. Summed up:
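P. aeruginosa UI-18 (wild-type) tested by CLSI broth dilution (M7-A8), 2-fold compound series incubated overnight. MIC read visually as lowest concentration preventing growth versus drug-free control; duplicates within 2-fold, lower value reported, with QC organisms and reference compounds in range.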

≈ marks a conversion by molar mass, not a printed value.

`C[C@@](CCn1cc(F)c(-c2ccc(-n3nccn3)c(F)c2)cc1=O)(C(=O)NO)S(C)(=O)=O` [Example 36, (2R)-4-{5-Fluoro-4-[3-fluoro-4-(2H-1,2,3-triazol-2-yl)phenyl]-2-oxopyridin-1(2H)-yl}-N-hydroxy-2-methyl-2-(methylsulfonyl)butanamide]: the IC50 in test [1] was 0.398 nM. For the same compound, the MIC in test [2] was more than 64 µg/mL; in test [3], 0.5 µg/mL (≈ 1.07 µM); in test [4] it was 1 µg/mL (≈ 2.14 µM).
On the same counts, the results for `C[C@@](CCn1cc(F)c(-c2ccccc2)c(F)c1=O)(C(=O)NO)S(C)(=O)=O` [Example 38, (2R)-4-(3,5-Difluoro-2-oxo-4-phenylpyridin-1(2H)-yl)-N-hydroxy-2-methyl-2-(methylsulfonyl)butanamide] are 0.55 nM, more than 64 µg/mL, 1 µg/mL (≈ 2.5 µM) and 0.5 µg/mL (≈ 1.25 µM).
Taken in the same sequence, the figures for `COc1c(-c2ccccc2)c(F)cn(CC[C@](C)(C(=O)NO)S(C)(=O)=O)c1=O` [Example 39, (2R)-4-(5-Fluoro-3-methoxy-2-oxo-4-phenylpyridin-1(2H)-yl)-N-hydroxy-2-methyl-2-(methylsulfonyl)butanamide] were 8.07 nM, 64 µg/mL (≈ 155 µM), 4 µg/mL (≈ 9.7 µM) and 8 µg/mL (≈ 19.4 µM).
On the same counts, the results for `C[C@@](CCn1cc(F)c(-c2ccccc2)c(O)c1=O)(C(=O)NO)S(C)(=O)=O` [Example 40, (2R)-4-(5-Fluoro-3-hydroxy-2-oxo-4-phenylpyridin-1(2H)-yl)-N-hydroxy-2-methyl-2-(methylsulfonyl)butanamide] are more than 100 nM, 64 µg/mL (≈ 161 µM), 16 µg/mL (≈ 40.2 µM) and 16 µg/mL (≈ 40.2 µM).
Take `C[C@@](CCn1cc(F)c(-c2ccc(-c3ccon3)cc2)cc1=O)(C(=O)NO)S(C)(=O)=O` [Example 41, (2R)-4-[5-Fluoro-4-(4-isoxazol-3-ylphenyl)-2-oxopyridin-1(2H)-yl]-N-hydroxy-2-methyl-2-(methylsulfonyl)butanamide]: the IC50 in test [1] is 0.237 nM. Also, the MIC in test [2] was 16 µg/mL (≈ 35.6 µM); in test [3], 0.5 µg/mL (≈ 1.11 µM); in test [4], 0.5 µg/mL (≈ 1.11 µM).
Regarding `C[C@@](CCn1cc(F)c(-c2ccc(-c3ncco3)cc2)cc1=O)(C(=O)NO)S(C)(=O)=O` [Example 42, (2R)-4-[5-Fluoro-4-[4-(1,3-oxazol-2-yl)phenyl]-2-oxopyridin-1(2H)-yl]-N-hydroxy-2-methyl-2-(methylsulfonyl)butanamide], the IC50 in test [1] came to 0.328 nM. Also, the minimal inhibitory concentration (MIC) in test [2] is more than 64 µg/mL; in test [3] it was 0.25 µg/mL (≈ 0.556 µM); in test [4] it was 1 µg/mL (≈ 2.22 µM).
Regarding `[2H]C([2H])([2H])c1ccc(-c2cc(=O)n(CC[C@](C)(C(=O)NO)S(C)(=O)=O)cc2F)cc1` [Example 43, (2R)-4-[5-Fluoro-4-(4-trideuteromethylphenyl)-2-oxopyridin-1(2H)-yl]-N-hydroxy-2-methyl-2-(methylsulfonyl)butanamide], the IC50 in test [1] was 0.653 nM. Moreover, the MIC in test [2] was more than 64 µg/mL; in test [3], 0.25 µg/mL (≈ 0.626 µM); in test [4] it was 0.5 µg/mL (≈ 1.25 µM).
Turning to `[2H]C([2H])([2H])Oc1ccc(-c2cc(=O)n(CC[C@](C)(C(=O)NO)S(C)(=O)=O)cc2F)cc1` [Example 44, (2R)-4-[5-Fluoro-4-(4-trideuteromethoxyphenyl)-2-oxopyridin-1(2H)-yl]-N-hydroxy-2-methyl-2-(methylsulfonyl)butanamide], in test [1], the IC50 turned out to be 0.664 nM. In addition, the MIC in test [2] is more than 64 µg/mL; in test [3], 0.25 µg/mL (≈ 0.602 µM); in test [4], 0.25 µg/mL (≈ 0.602 µM).
As for `[2H]C([2H])([2H])C([2H])([2H])Oc1ccc(-c2cc(=O)n(CC[C@](C)(C(=O)NO)S(C)(=O)=O)cc2F)cc1` [Example 45, (2R)-4-[4-(4-Pentadeuteroethoxyphenyl)-5-fluoro-2-oxopyridin-1(2H)-yl]-N-hydroxy-2-methyl-2-(methylsulfonyl)butanamide], in test [1], the IC50 was found to be 0.547 nM. Moreover, the results for the MIC in test [2], in test [3] and in test [4] were more than 64 µg/mL, 0.125 µg/mL (≈ 0.29 µM) and 0.5 µg/mL (≈ 1.16 µM), respectively.
Taken in the same sequence, the figures for `C[C@@](CCn1cc(F)c(-c2ccc(OC3CC3)cc2)cc1=O)(C(=O)NO)S(C)(=O)=O` [Example 46, (2R)-4-{4-[4-(Cyclopropyloxy)phenyl]-5-fluoro-2-oxopyridin-1(2H)-yl}-N-hydroxy-2-methyl-2-(methylsulfonyl)butanamide] were 0.229 nM, more than 64 µg/mL, 0.125 µg/mL (≈ 0.285 µM) and 0.5 µg/mL (≈ 1.14 µM).
Taken in the same sequence, the figures for `C[C@@](CCn1cc(F)c(C#Cc2ccccc2)cc1=O)(C(=O)NO)S(C)(=O)=O` [Example 48, (2R)-4-[5-Fluoro-2-oxo-4-(phenylethynyl)pyridin-1(2H)-yl]-N-hydroxy-2-methyl-2-(methylsulfonyl)butanamide] were 0.555 nM, more than 64 µg/mL, 0.06 µg/mL (≈ 0.148 µM) and 0.5 µg/mL (≈ 1.23 µM).
Turning to `C[C@@](CCn1cc(F)c(-c2cccc(Oc3nccs3)c2)cc1=O)(C(=O)NO)S(C)(=O)=O` [Example 49, (2R)-4-{5-Fluoro-2-oxo-4-[3-(1,3-thiazol-2-yloxy)phenyl]pyridin-1(2H)-yl}-N-hydroxy-2-methyl-2-(methylsulfonyl)butanamide], the IC50 in test [1] is 0.758 nM. For the same compound, the MIC in test [2] was more than 64 µg/mL; in test [3], 0.25 µg/mL (≈ 0.519 µM); in test [4] it was 2 µg/mL (≈ 4.15 µM).
